Experiments:
Type in all cases: cell-based
[1] = molecular target: T1, EP4 (Homo sapiens, UniProt P35408); test: hEP4 cAMP Assay (BT549 breast cancer cells, HTRF cAMP, PGE2 6 nM); settings: antagonistic activity, PGE2 6 nM (EC80)
T1 construct: BT549 breast cancer cells, express high endogenous EP4 levels and very low EP2 levels; host or cells: BT549 breast cancer cells
Method in brief: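 BT549 cells (endogenous EP4, very low EP2) in HBSS/20 mM HEPES/0.2% BSA/2 mM IBMX, pre-incubated 45 min RT with compound, then stimulated 30 min RT with PGE2 6 nM (EC80). cAMP read by HTRF competitive immunoassay (665/620 nm), converted via calibrator to % of DMSO control; IC50 from duplicate dose-response curves.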

[2] = molecular target: T2, PTGER2 (EP2) (Homo sapiens, UniProt P43116); test: hEP2 b-Arrestin Assay (PathHunter HEK 293 PTGER2 b-arrestin cells, PGE2 5 μM); settings: antagonistic activity, beta-arrestin assay, HEK 293 PTGER2 cells, PGE2 5 μM (EC80); read-out: hEP2 b-arr IC50
T2 construct: host or cells: HEK 293 (PathHunter, stably transfected)
Method in brief: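 PathHunter enzyme-fragment complementation in HEK 293 cells: compounds (10 μM-2 nM or 1 μM-0.2 nM) pre-incubated 15 min at 37 °C, then 5 μM PGE2 (EC80) for 120 min at 37 °C. Chemiluminescence read after 1 h detection; IC50 from duplicate dose-response fits, means of repeats.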

[3] = molecular target: T3, PTGER4 (EP4) (Homo sapiens, UniProt P35408); test: hEP4 b-Arrestin Assay (PathHunter HEK 293 PTGER4 b-arrestin cells, PGE2 20 nM); settings: antagonistic activity, beta-arrestin assay, HEK 293 PTGER4 cells, PGE2 20 nM (EC80); read-out: hEP4 b-arr IC50
T3 construct: host or cells: HEK 293 (PathHunter, stably transfected)
Method in brief: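 PathHunter HEK 293 EP4 b-arrestin enzyme-complementation cells preincubated 15 min at 37° C with compound (10 μM-2 nM or 1 μM-0.2 nM), then stimulated 120 min with 20 nM PGE2 (EC80). Chemiluminescence read; IC50 from duplicate % activity vs DMSO, one-site fit, averaged over repeats.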

[4] = molecular target: T4, EP2 (Homo sapiens, UniProt P43116); test: hEP2 cAMP Assay (SF295 glioblastoma cells, HTRF cAMP, PGE2 75 nM); settings: antagonistic activity, PGE2 75 nM (EC80)
T4 construct: SF295 glioblastoma cells express high endogenous EP2 and no EP4; host or cells: SF295 glioblastoma cells
Method in brief: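 IC50 values derive from duplicate-point curves of percent cAMP relative to DMSO, read by HTRF (665/620 nm) against a cAMP calibrator. Compounds (30 μM to 0.01 nM ranges) were given 45 min at room temperature before 30 min with 75 nM PGE2, in EP2-only SF295 cells with 2 mM IBMX.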

T2 sequence (P43116 whole entry): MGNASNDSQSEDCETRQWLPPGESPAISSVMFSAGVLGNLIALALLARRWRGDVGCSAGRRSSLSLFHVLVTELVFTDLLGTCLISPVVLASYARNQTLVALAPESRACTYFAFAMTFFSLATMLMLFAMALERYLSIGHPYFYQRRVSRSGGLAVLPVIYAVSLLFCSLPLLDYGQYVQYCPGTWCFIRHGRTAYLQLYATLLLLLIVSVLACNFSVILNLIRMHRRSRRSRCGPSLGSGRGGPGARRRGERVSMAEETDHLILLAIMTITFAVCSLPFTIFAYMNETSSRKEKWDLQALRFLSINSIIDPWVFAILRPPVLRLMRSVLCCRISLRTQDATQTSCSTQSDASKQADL
T4 sequence (P43116 whole entry): as above
T1 sequence (P35408 whole entry): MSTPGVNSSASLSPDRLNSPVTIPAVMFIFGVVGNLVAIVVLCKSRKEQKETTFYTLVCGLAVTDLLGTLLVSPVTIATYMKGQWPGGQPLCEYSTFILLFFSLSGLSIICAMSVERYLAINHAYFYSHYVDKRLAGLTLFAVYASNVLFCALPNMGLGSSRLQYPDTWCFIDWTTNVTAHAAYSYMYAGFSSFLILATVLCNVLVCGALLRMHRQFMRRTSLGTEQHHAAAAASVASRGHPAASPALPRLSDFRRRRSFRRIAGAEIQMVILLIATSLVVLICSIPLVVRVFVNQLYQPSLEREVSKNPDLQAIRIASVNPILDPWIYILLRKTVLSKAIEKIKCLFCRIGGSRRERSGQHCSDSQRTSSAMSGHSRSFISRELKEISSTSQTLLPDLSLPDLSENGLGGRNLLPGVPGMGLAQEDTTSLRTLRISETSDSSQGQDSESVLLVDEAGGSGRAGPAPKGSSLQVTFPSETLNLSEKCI
T3 sequence (P35408 whole entry): as above

Row | SMILES | IC50 [1] [nM] | IC50 [2] [nM] | IC50 [3] [nM] | IC50 [4] [nM]
1 | CCOc1cc(-c2cc(NCCc3c(C#N)ccc4ccccc34)ncn2)ccc1C(=O)O [Example 67, 4-{6-[2-(2-Cyano-naphthalen-1-yl)-ethylamino]-pyrimidin-4-yl}-2-ethoxy-benzoic acid] | 309 | 29 | 499 | 25
2 | CCOc1cc(-c2cc(NCCc3c(C#N)ccc4ccccc34)ncn2)sc1C(=O)O [Example 68, 5-{6-[2-(2-Cyano-naphthalen-1-yl)-ethylamino]-pyrimidin-4-yl}-3-ethoxy-thiophene-2-carboxylic acid] | 22 | 7 | 24 | 3
3 | CCOc1cc(-c2cc(NCCc3ccc(C#N)c4ccccc34)ncn2)sc1C(=O)O [Example 69, 5-{6-[2-(4-Cyano-naphthalen-1-yl)-ethylamino]-pyrimidin-4-yl}-3-ethoxy-thiophene-2-carboxylic acid] | 66 | 78 | 48 | 79
4 | CCOc1cc(-c2cc(NCCc3ccc(C(F)F)c4ccccc34)ncn2)sc1C(=O)O [Example 72, 5-{6-[2-(4-Difluoromethyl-naphthalen-1-yl)-ethylamino]-pyrimidin-4-yl}-3-ethoxy-thiophene-2-carboxylic acid] | 6 | 50 | 8 | 50
5 | CCOc1cc(-c2cc(NCCc3cccc4cc(C)oc34)ncn2)sc1C(=O)O [Example 74, 3-Ethoxy-5-{6-[2-(2-methyl-benzofuran-7-yl)-ethylamino]-pyrimidin-4-yl}-thiophene-2-carboxylic acid] | 88 | 212 | 117 | 78
6 | CCOc1cc(-c2cc(NCCc3c(N)ccc4ccccc34)ncn2)sc1C(=O)O [Example 78, 5-{6-[2-(2-Amino-naphthalen-1-yl)-ethylamino]-pyrimidin-4-yl}-3-ethoxy-thiophene-2-carboxylic acid] | 51 | 41 | 50 | 56
7 | CCOc1cc(-c2cc(NCCc3c(C)ccc4c3cnn4C)ncn2)sc1C(=O)O [Example 79, 5-{6-[2-(1,5-Dimethyl-1H-indazol-4-yl)-ethylamino]-pyrimidin-4-yl}-3-ethoxy-thiophene-2-carboxylic acid] | 92 | 36 | 196 | 25
8 | COc1ccc2ncccc2c1CCNc1cc(-c2cc(C(F)(F)F)c(C(=O)O)s2)ncn1 [Example 81, 5-{6-[2-(6-Methoxy-quinolin-5-yl)-ethylamino]-pyrimidin-4-yl}-3-trifluoromethyl-thiophene-2-carboxylic acid] | 205 | 116 | 427 | 30
9 | CCOc1cc(-c2cc(NCCc3c(C)ccc4cnccc34)ncn2)sc1C(=O)O [Example 85, 3-Ethoxy-5-{6-[2-(6-methyl-isoquinolin-5-yl)-ethylamino]-pyrimidin-4-yl}-thiophene-2-carboxylic acid] | 130 | 30 | 244 | 32
10 | CCOc1cc(-c2cc(NCCc3c(F)ccc4ccccc34)ncn2)sc1C(=O)O [Example 95, 3-Ethoxy-5-{6-[2-(2-fluoro-naphthalen-1-yl)-ethylamino]-pyrimidin-4-yl}-thiophene-2-carboxylic acid] | 21 | 8 | 51 | 4
11 | CCSc1cc(-c2cc(NCCc3ccc(C)c4ccccc34)ncn2)ccc1C(=O)O [Example 100, 2-Ethylsulfanyl-4-{6-[2-(4-methyl-naphthalen-1-yl)-ethylamino]-pyrimidin-4-yl}-benzoic acid] | 76 | 133 | 206 | 206
12 | CCOc1cc(-c2cc(NCCc3cccc4ccsc34)ncn2)sc1C(=O)O [Example 103, 5-[6-(2-Benzo[b]thiophen-7-yl-ethylamino)-pyrimidin-4-yl]-3-ethoxy-thiophene-2-carboxylic acid] | 73 | 33 | 314 | 79
13 | CCOc1cc(-c2cc(NCCc3cccc4sccc34)ncn2)sc1C(=O)O [Example 108, 5-[6-(2-Benzo[b]thiophen-4-yl-ethylamino)-pyrimidin-4-yl]-3-ethoxy-thiophene-2-carboxylic acid] | 31 | 31 | 225 | 52
14 | COc1ccc2ccccc2c1CCNc1cc(-c2ccc(-c3c(O)c(=O)c3=O)cc2)ncn1 [Example 116, 3-Hydroxy-4-(4-{6-[2-(2-methoxy-naphthalen-1-yl)-ethylamino]-pyrimidin-4-yl}-phenyl)-cyclobut-3-ene-1,2-dione] | 241 | 25 | 1140 | 67
15 | CCOc1cc(-c2cc(NCCc3c(OC)ccc4ccccc34)ncn2)sc1/C=C/C(=O)O [Example 118, (E)-3-(3-Ethoxy-5-{6-[2-(2-methoxy-naphthalen-1-yl)-ethylamino]-pyrimidin-4-yl}-thiophen-2-yl)-acrylic acid] | 55 | 11 | 12 | 94
16 | CCCCOc1cc(-c2cc(NCCc3c(OC)ccc4ccccc34)ncn2)ccc1C(=O)O [Example 119, 2-Butoxy-4-{6-[2-(2-methoxy-naphthalen-1-yl)-ethylamino]-pyrimidin-4-yl}-benzoic acid] | 200 | 18 | 222 | 12
17 | CCOc1cc(-c2cc(NCCc3c(OC)ccc4ccccc34)ncn2)ccc1OCCC(=O)O [Example 120, 3-(2-Ethoxy-4-{6-[2-(2-methoxy-naphthalen-1-yl)-ethylamino]-pyrimidin-4-yl}-phenoxy)-propionic acid] | 206 | 16 | 75 | 88
18 | CCCc1cc(-c2cc(NCCc3c(OC)ccc4ccccc34)ncn2)ccc1C(=O)O [Example 121, 4-{6-[2-(2-Methoxy-naphthalen-1-yl)-ethylamino]-pyrimidin-4-yl}-2-propyl-benzoic acid] | 53 | 12 | 308 | 5
19 | CCOc1cc(-c2cc(NCCc3c(OC)ccc4ccccc34)ncn2)ccc1-c1nnn[nH]1 [Example 125, {6-[3-Ethoxy-4-(1H-tetrazol-5-yl)-phenyl]-pyrimidin-4-yl}-[2-(2-methoxy-naphthalen-1-yl)-ethyl]amine] | 29 | 8 | 29 | 24
20 | CCOc1cc(-c2cc(NCCc3c(OC)ccc4ccccc34)ncn2)ccc1-c1noc(=O)[nH]1 [Example 126, 3-(2-Ethoxy-4-{6-[2-(2-methoxy-naphthalen-1-yl)-ethylamino]-pyrimidin-4-yl}-phenyl)-4H-[1,2,4]oxadiazol-5-one] | 43 | 5 | 34 | 20
21 | COc1ccc2ccccc2c1CCNc1cc(-c2ccc(C(=O)O)c(OC(F)F)c2)ncn1 [Example 128, 2-Difluoromethoxy-4-{6-[2-(2-methoxy-naphthalen-1-yl)-ethylamino]-pyrimidin-4-yl}-benzoic acid] | 250 | 10 | 291 | 3
22 | CCOc1cc(-c2cc(NCCc3c(OC)ccc4ccccc34)ncn2)sc1CCC(=O)O [Example 131, 3-(3-Ethoxy-5-{6-[2-(2-methoxy-naphthalen-1-yl)-ethylamino]-pyrimidin-4-yl}-thiophen-2-yl)-propionic acid] | 157 | 54 | 88 | 73
23 | CCOc1cc(-c2cc(NCCc3c(OC)ccc4ccccc34)ncn2)ccc1NC(=O)C(=O)O [Example 133, N-(2-Ethoxy-4-{6-[2-(2-methoxy-naphthalen-1-yl)-ethylamino]-pyrimidin-4-yl}-phenyl)-oxalamic acid] | 79 | 6 | 41 | 22
24 | COc1ccc2ccccc2c1CCNc1cc(-c2ccc(-c3cc(O)no3)cc2)ncn1 [Example 134, 5-(4-{6-[2-(2-Methoxy-naphthalen-1-yl)-ethylamino]-pyrimidin-4-yl}-phenyl)-isoxazol-3-ol] | 351 | 8 | 280 | 91

Source: US11446298B2, “Pyrimidine derivatives” (Idorsia Pharmaceuticals Ltd, priority 2017, dated 2022)
